Some test systems named below: SF-295 CNS; DU-145 prostate; NCI-H460 lung; U251 CNS; RXF 393 renal; MDA-MB-435; SW-620 colon; EKVX NSCLC; T-47D breast; MDA-N; IGROV1 ovarian; HCT-15 colon; A498 renal; NCI-H226 lung; HT29 colon; MDA-MB-231 breast.
Assay in all cases: inhibition of tumour cell growth, NCI panel, 48 h

Each structure is given as a SMILES string.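 These data come from cells grown in 96-well plates and exposed to compound for 48 hours at five concentrations. TGI denotes the concentration required for complete inhibition of growth.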 Where a SMILES comes first, the peptide text is derived from it. Bridges are numbered along the chain shown (N, C = ends). [ ]: non-standard residue; d: D form. Aib = CC(C)(N)C(=O)O; βAla = NCCC(=O)O

Consider `CCOC(=O)c1cc(C2CCN(c3ccccc3)C2=O)c(/C(O)=C/C(C)=O)[nH]1` (centres undefined), for which the TGI was over 100 µM in the assay with SF-295 CNS; over 100 µM in the assay with DU-145 prostate; over 100 µM in the assay on NCI-H460 lung; over 100 µM in the assay with U251 CNS; 55.6 µM in the assay on RXF 393 renal; over 100 µM with MDA-MB-435. The TGI in the assay on SW-620 colon, in the assay on EKVX NSCLC, in the assay with T-47D breast, in the assay with MDA-N, in the assay with IGROV1 ovarian and in the assay with HCT-15 colon was over 100 µM throughout. Further, the TGI in the assay on A498 renal, with NCI-H226 lung, with HT29 colon and with MDA-MB-231 breast was over 100 µM in each case.

Turning to `COc1ccc(C2SC(N)=Nc3c2c(C)nn3C(=O)c2ccccc2O)cc1OC` (centres undefined), the TGI in the assay with SF-295 CNS, with DU-145 prostate, in the assay on NCI-H460 lung, with U251 CNS, in the assay with RXF 393 renal and in the assay on MDA-MB-435 was over 10 µM in each case. The TGI in the assay on SW-620 colon, in the assay on EKVX NSCLC, in the assay with T-47D breast, in the assay on MDA-N, in the assay with IGROV1 ovarian and in the assay with HCT-15 colon was over 10 µM throughout. Further, the TGI in the assay on A498 renal, in the assay with NCI-H226 lung, with HT29 colon and in the assay on MDA-MB-231 breast was over 10 µM throughout.

`COc1ccc2c(c1)Cc1c(NCCN(C)C)ccc(C(=O)NCCCN(C)CCCNC(=O)c3ccc(NCCN(C)C)c4c3Nc3ccc(OC)cc3C4)c1N2`: the TGI in the assay on SF-295 CNS stood at 3.52 µM; in the assay on DU-145 prostate, 1.04 µM; in the assay on NCI-H460 lung, 0.175 µM; with U251 CNS, 1.1 µM; with RXF 393 renal, 1.85 µM; with MDA-MB-435 it was 0.191 µM. For the same molecule, the TGI in the assay with SW-620 colon is 8.65 µM; in the assay with EKVX NSCLC, 0.643 µM; in the assay with T-47D breast it was 12.5 µM; with MDA-N, 0.224 µM; in the assay on IGROV1 ovarian, 3.95 µM; in the assay on HCT-15 colon, over 74.3 µM. Also, the TGI came to 0.833 µM in the assay with A498 renal, 0.241 µM with NCI-H226 lung, 0.566 µM with HT29 colon and 0.419 µM in the assay on MDA-MB-231 breast.

As to `O=c1ccc2ccc(OP(=O)(O)O)cc2o1`, the TGI with SF-295 CNS, in the assay with DU-145 prostate, in the assay with NCI-H460 lung, in the assay with U251 CNS, with RXF 393 renal and in the assay with MDA-MB-435 was over 100 µM in each case. In addition, the TGI in the assay on SW-620 colon, in the assay with EKVX NSCLC, in the assay with T-47D breast, in the assay with MDA-N, in the assay with IGROV1 ovarian and with HCT-15 colon was over 100 µM throughout. Besides, the TGI in the assay with A498 renal, in the assay on NCI-H226 lung, in the assay on HT29 colon and in the assay with MDA-MB-231 breast was over 100 µM throughout.

`CC1(C)NC(=O)C(NC(=O)C(N)CC(=O)O)CCCCNC(=O)CCNC1=O` (centres undefined) (H-DK[Aib][βAla]; lactam 2-C; configuration not given here): the TGI in the assay with SF-295 CNS, with DU-145 prostate, in the assay on NCI-H460 lung, with U251 CNS, with RXF 393 renal and in the assay on MDA-MB-435 was over 100 µM throughout. Also, the TGI in the assay with SW-620 colon, with EKVX NSCLC, in the assay on T-47D breast, in the assay with MDA-N, with IGROV1 ovarian and in the assay with HCT-15 colon was over 100 µM each time. The TGI with A498 renal, in the assay with NCI-H226 lung, in the assay on HT29 colon and in the assay with MDA-MB-231 breast was over 100 µM in each case.

As for `CC1=NN(c2cccc(Cl)c2)C2(SCC(=O)N2c2nc3ccccc3s2)C1=CC=Cc1ccccc1` (centres undefined), the TGI was over 100 µM with SF-295 CNS; 68.6 µM in the assay with DU-145 prostate; over 100 µM with NCI-H460 lung; 48.8 µM in the assay on U251 CNS; 64.1 µM in the assay on RXF 393 renal; over 100 µM with MDA-MB-435. Also, the TGI with SW-620 colon, with EKVX NSCLC, with T-47D breast, in the assay with MDA-N, with IGROV1 ovarian and with HCT-15 colon was over 100 µM throughout. For the same molecule, the TGI with A498 renal was 61.9 µM; with NCI-H226 lung, over 100 µM; in the assay with HT29 colon it was over 100 µM; in the assay on MDA-MB-231 breast, 72 µM.

With `CCOC(=O)Cc1csc(NC(NC(=O)OCC)(C(=O)OCC)C(F)(F)F)n1` (centres undefined), the TGI with SF-295 CNS, in the assay on DU-145 prostate, with NCI-H460 lung, in the assay with U251 CNS, with RXF 393 renal and in the assay with MDA-MB-435 was over 100 µM each time. The TGI in the assay with SW-620 colon, with EKVX NSCLC, in the assay on T-47D breast, in the assay with MDA-N, in the assay on IGROV1 ovarian and in the assay on HCT-15 colon was over 100 µM in each case. The TGI with A498 renal, in the assay on NCI-H226 lung, in the assay on HT29 colon and in the assay with MDA-MB-231 breast was over 100 µM each time.

In the case of `Cc1cc(NC2=CC(=O)C(=O)c3ccccc32)no1`, the TGI in the assay with SF-295 CNS came out at 21.6 µM; in the assay with DU-145 prostate, 30.1 µM; with NCI-H460 lung it was 23.3 µM; in the assay on U251 CNS, 13.4 µM; in the assay on RXF 393 renal, 29.6 µM; in the assay with MDA-MB-435 it was 3.34 µM. For the same molecule, the TGI turned out to be 14.6 µM in the assay on SW-620 colon; 31.5 µM in the assay with EKVX NSCLC; 32.7 µM in the assay on T-47D breast; 3.34 µM in the assay on MDA-N; 21.8 µM in the assay with IGROV1 ovarian; 19 µM with HCT-15 colon. Also, the TGI is 33.1 µM in the assay with A498 renal, 35.9 µM in the assay on NCI-H226 lung, 28.3 µM with HT29 colon and over 67.2 µM with MDA-MB-231 breast.

Turning to `N#CC12C(=O)N3C(=NC(c4ccco4)NC3c3ccco3)C1(C#N)C(c1ccco1)NC1=C2CCCC1` (centres undefined), the TGI in the assay on SF-295 CNS, with DU-145 prostate, with NCI-H460 lung, in the assay on U251 CNS, in the assay on RXF 393 renal and in the assay on MDA-MB-435 was over 100 µM in each case. In addition, the TGI with SW-620 colon, in the assay on EKVX NSCLC, in the assay on T-47D breast, with MDA-N, in the assay on IGROV1 ovarian and in the assay with HCT-15 colon was over 100 µM each time. Moreover, the TGI in the assay on A498 renal, in the assay on NCI-H226 lung, in the assay on HT29 colon and with MDA-MB-231 breast was over 100 µM in each case.

The record behind these values is PubChem BioAssay (NCI).
